Columns and labels:
[1] = target: T1, Human Indoleamine 2,3-dioxygenase (IDO) (Homo sapiens, UniProt P14902); test: Human IDO enzymatic assay (kynurenine level); assay type: biochemical; settings: 6 nM IDO, 10 μM L-Trp; geometric mean; read-out: IDO1 GMean: IC50 (μM) (Biochemical Assay)
T1 construct: His tag (N); made in house; host or cells: E. coli
Experimental: (§1) Human Indoleamine 2,3-dioxygenase (IDO) and Tryptophan 2,3-dioxygenase (TDO) enzymatic assay
(§2) Human IDO or TDO with N-terminal His tag is purified in E. coli. The IDO enzymatic assay is performed using 6 nM IDO and 10 μM L-Trp in the presence of 10 mM ascorbic acid, 5 μM methylene blue, 100 nM catalase and 0.01% Tween 20 in 50 mM sodium phosphate buffer (pH 6.5). 19 μL of above reaction mixture is added to wells of 384 well reaction plate containing […] of various concentrations of test compound or DMSO vehicle and incubated for 20 minutes at room temperature. The TDO enzymatic reaction assay is performed using 1 nM TDO and 350 μM L-Trp in the presence of 10 mM ascorbic acid, 0.4 μM methylene blue, 100 nM catalase and 0.01% Tween 20 in 50 mM sodium phosphate buffer (pH 6.5). 19 μL of above reaction mixture is added to wells of 384 well reaction plate containing 1 μL of various concentrations of test compound or DMSO vehicle and incubated for 70 minutes at room temperature. 16 wells containing all the components of reaction mixture and 5% DMSO serve as high control. 16 well containing all the components except enzyme of reaction mixture and 5% DMSO serves as low control. Both IDO and TDO enzymatic reactions are stopped by addition of […] of 30% TCA and incubated 30 minutes at 50° C. to hydrolyze N-formylkynurenine produced by IDO or TDO to kynurenine. Upon measuring the kynurenine level, the percentage inhibition is calculated at individual concentrations relative to high and low controls. The data is analyzed by using nonlinear regression to generate IC50 values.

[2] = target: T2, Human Tryptophan 2,3-dioxygenase (TDO) (Homo sapiens, UniProt P48775); test: Human TDO enzymatic assay (kynurenine level); assay type: biochemical; settings: 1 nM TDO, 350 μM L-Trp; geometric mean; read-out: TDO GMean: IC50 (μM) (Biochemical Assay)
T2 construct: His tag (N); made in house; host or cells: E. coli
T2 sequence (P48775 whole entry): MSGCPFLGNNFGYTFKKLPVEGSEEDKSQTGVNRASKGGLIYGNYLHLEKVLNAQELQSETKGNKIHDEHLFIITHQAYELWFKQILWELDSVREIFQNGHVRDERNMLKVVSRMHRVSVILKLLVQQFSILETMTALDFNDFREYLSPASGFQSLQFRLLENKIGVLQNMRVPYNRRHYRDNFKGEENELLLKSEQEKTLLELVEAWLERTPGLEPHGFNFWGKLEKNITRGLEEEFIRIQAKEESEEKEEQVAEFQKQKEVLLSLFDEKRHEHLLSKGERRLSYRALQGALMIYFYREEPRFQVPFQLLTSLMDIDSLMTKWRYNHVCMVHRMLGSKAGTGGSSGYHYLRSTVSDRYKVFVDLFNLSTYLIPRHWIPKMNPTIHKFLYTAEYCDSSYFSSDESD
Experimental: as §1, §2

T1 sequence (P14902 whole entry): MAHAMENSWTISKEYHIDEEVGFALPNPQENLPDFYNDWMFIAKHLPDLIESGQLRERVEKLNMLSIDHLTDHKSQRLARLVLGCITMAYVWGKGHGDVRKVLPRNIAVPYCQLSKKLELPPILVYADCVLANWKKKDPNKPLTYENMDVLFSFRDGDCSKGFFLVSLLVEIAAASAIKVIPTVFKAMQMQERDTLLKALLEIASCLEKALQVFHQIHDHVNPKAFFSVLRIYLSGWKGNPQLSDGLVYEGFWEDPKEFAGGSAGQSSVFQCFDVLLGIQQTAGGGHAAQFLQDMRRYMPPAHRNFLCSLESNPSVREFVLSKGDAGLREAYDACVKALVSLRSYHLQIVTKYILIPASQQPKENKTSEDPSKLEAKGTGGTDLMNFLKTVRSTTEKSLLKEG

IC50 [1] [µM]	IC50 [2] [µM]	Structure (SMILES)
0.0001 to 10	0.0001 to 10	CC(C)(C1CCN(C(=O)NCC#N)CC1)[C@H](O)c1cc(Cl)cc2cn[nH]c12 [Compound P-0587, (S)-4-(1-(5-chloro-1H-indazol-7-yl)-1-hydroxy-2-methylpropan-2-yl)-N-(cyanomethyl) piperidine-1-carboxamide]
0.0001 to 10	0.0001 to 10	CC(C)(C1CCN(C(=O)NC2CCC(F)(F)CC2)CC1)[C@H](O)c1cc(Cl)cc2cn[nH]c12 [Compound P-0588, (S)-4-(1-(5-chloro-1H-indazol-7-yl)-1-hydroxy-2-methylpropan-2-yl)-N-(4,4-difluorocyclohexyl) piperidine-1-carboxamide]
0.0001 to 10	0.0001 to 10	CC(C)(C1CCN(C(=O)N[C@H]2CCOC2)CC1)[C@H](O)c1cc(Cl)cc2cn[nH]c12 [Compound P-0589, 4-((S)-1-(5-chloro-1H-indazol-7-yl)-1-hydroxy-2-methylpropan-2-yl)-N-((S)-tetrahydrofuran-3-yl)piperidine-1-carboxamide]
0.0001 to 10	0.0001 to 10	CC(C)(C1CCN(C(=O)N[C@@H]2CC[C@@H](O)C2)CC1)[C@H](O)c1cc(Cl)cc2cn[nH]c12 [Compound P-0591, 4-((S)-1-(5-chloro-1H-indazol-7-yl)-1-hydroxy-2-methylpropan-2-yl)-N-((1R,3R)-3-hydroxycyclopentyl) piperidine-1-carboxamide]
0.0001 to 10	0.0001 to 10	CC(C)(C1CCN(C(=O)NC2CC(F)(F)C2)CC1)[C@H](O)c1cc(Cl)cc2cn[nH]c12 [Compound P-0592, (S)-4-(1-(5-chloro-1H-indazol-7-yl)-1-hydroxy-2-methylpropan-2-yl)-N-(3,3-difluorocyclobutyl) piperidine-1-carboxamide]
0.0001 to 10	0.0001 to 10	CC(C)(C1CCN(C(=O)N[C@@H]2CCOC2)CC1)[C@H](O)c1cc(Cl)cc2cn[nH]c12 [Compound P-0593, 4-((S)-1-(5-chloro-1H-indazol-7-yl)-1-hydroxy-2-methylpropan-2-yl)-N-((R)-tetrahydrofuran-3-yl)piperidine-1-carboxamide]
0.0001 to 10	0.0001 to 10	CC(C)NC(=O)N1CCC(C(C)(C)[C@H](O)c2cc(Cl)cc3cn[nH]c23)CC1 [Compound P-0594, (S)-4-(1-(5-chloro-1H-indazol-7-yl)-1-hydroxy-2-methylpropan-2-yl)-N-isopropylpiperidine-1-carboxamide]
0.0001 to 10	0.0001 to 10	CC(C)(C1CCN(C(=O)NC2COC2)CC1)[C@H](O)c1cc(Cl)cc2cn[nH]c12 [Compound P-0595, (S)-4-(1-(5-chloro-1H-indazol-7-yl)-1-hydroxy-2-methylpropan-2-yl)-N-(oxetan-3-yl)piperidine-1-carboxamide]
0.0001 to 10	0.0001 to 10	CONC(=O)N1CCC(C(C)(C)[C@H](O)c2cc(Cl)cc3cn[nH]c23)CC1 [Compound P-0598, (S)-4-(1-(5-chloro-1H-indazol-7-yl)-1-hydroxy-2-methylpropan-2-yl)-N-methoxypiperidine-1-carboxamide]
0.0001 to 10	0.0001 to 10	CC(C)(C1CCN(C(=O)N[C@H]2C[C@H](O)C2)CC1)[C@H](O)c1cc(Cl)cc2cn[nH]c12 [Compound P-0600, 4-((S)-1-(5-chloro-1H-indazol-7-yl)-1-hydroxy-2-methylpropan-2-yl)-N-((1r,3S)-3-hydroxycyclobutyl) piperidine-1-carboxamide]

The next lines start with the compound.

Structure (SMILES)	IC50 [1] [µM]	IC50 [2] [µM]
CC(C)(C1CCN(C(=O)NCc2ccc(C#N)nc2)CC1)[C@H](O)c1cc(Cl)cc2cn[nH]c12 [Compound P-0590, (S)-4-(1-(5-chloro-1H-indazol-7-yl)-1-hydroxy-2-methylpropan-2-yl)-N-((6-cyanopyridin-3-yl)methyl)piperidine-1-carboxamide]	0.0001 to 10	0.0001 to 10
CC(C)(C1CCN(C(=O)NCCCF)CC1)[C@H](O)c1cc(Cl)cc2cn[nH]c12 [Compound P-0596, (S)-4-(1-(5-chloro-1H-indazol-7-yl)-1-hydroxy-2-methylpropan-2-yl)-N-(3-fluoropropyl) piperidine-1-carboxamide]	0.0001 to 10	0.0001 to 10
CC(C)(C1CCN(C(=O)NCCCC#N)CC1)[C@H](O)c1cc(Cl)cc2cn[nH]c12 [Compound P-0597, (S)-4-(1-(5-chloro-1H-indazol-7-yl)-1-hydroxy-2-methylpropan-2-yl)-N-(3-cyanopropyl) piperidine-1-carboxamide]	0.0001 to 10	0.0001 to 10
CC1(CNC(=O)N2CCC(C(C)(C)[C@H](O)c3cc(Cl)cc4cn[nH]c34)CC2)CC1 [Compound P-0599, (S)-4-(1-(5-chloro-1H-indazol-7-yl)-1-hydroxy-2-methylpropan-2-yl)-N-((1-methylcyclopropyl)methyl)piperidine-1-carboxamide]	0.0001 to 10	0.0001 to 10
CC(C)(C1CCN(C(=O)NCc2ccc(F)cn2)CC1)[C@H](O)c1cc(Cl)cc2cn[nH]c12 [Compound P-0601, (S)-4-(1-(5-chloro-1H-indazol-7-yl)-1-hydroxy-2-methylpropan-2-yl)-N-((5-fluoropyridin-2-yl)methyl) piperidine 1-carboxamide]	0.0001 to 10	0.0001 to 10
CC(C)(C1CCN(C(=O)NCc2ccc(F)cc2)CC1)[C@H](O)c1cc(Cl)cc2cn[nH]c12 [Compound P-0602, (S)-4-(1-(5-chloro-1H-indazol-7-yl)-1-hydroxy-2-methylpropan-2-yl)-N-(4-fluorobenzyl) piperidine-1-carboxamide]	0.0001 to 10	0.0001 to 10
CC(C)(C1CCN(C(=O)Nc2ccccc2)CC1)C(O)c1cc(Cl)cc2[nH]ncc12 (stereo not shown) [Compound P-0603, 4-(1-(6-chloro-1H-indazol-4-yl)-1-hydroxy-2-methylpropan-2-yl)-N-phenylpiperidine-1-carboxamide]	0.0001 to 10	0.0001 to 10
CC(C)(C1CCN(C(=O)Nc2ccc(Cl)nc2)CC1)C(O)c1cc(Cl)cc2cn[nH]c12 (stereo not shown) [Compound P-0604, 4-(1-(5-chloro-1H-indazol-7-yl)-1-hydroxy-2-methylpropan-2-yl)-N-(6-chloropyridin-3-yl)piperidine-1-carboxamide]	0.0001 to 10	0.0001 to 10
COc1ccc(NC(=O)N2CCC(C(C)(C)C(O)c3cc(Cl)cc4cn[nH]c34)CC2)cn1 (stereo not shown) [Compound P-0605, 4-(1-(5-chloro-1H-indazol-7-yl)-1-hydroxy-2-methylpropan-2-yl)-N-(6-methoxypyridin-3-yl)piperidine-1-carboxamide]	0.0001 to 10	0.0001 to 10
CC(C)(C1CCN(C(N)=O)CC1)C(O)c1cc(Cl)cc2[nH]ncc12 (stereo not shown) [Compound P-0606, 4-(1-(6-chloro-1H-indazol-4-yl)-1-hydroxy-2-methylpropan-2-yl)piperidine-1-carboxamide]	0.0001 to 10	0.0001 to 10
CC(C)(C)OC(=O)N1CCC(C(C)(C)C(O)c2cc(Cl)cc3[nH]ncc23)CC1 (stereo not shown) [Compound P-0607, tert-butyl 4-(1-(6-chloro-1H-indazol-4-yl)-1-hydroxy-2-methylpropan-2-yl)piperidine-1-carboxylate]	0.0001 to 10	0.0001 to 10
CC(C)(C1CCN(C(=O)CC2CC2)CC1)C(O)c1cc(Cl)cc2[nH]ncc12 (stereo not shown) [Compound P-0608, 1-(4-(1-(6-chloro-1H-indazol-4-yl)-1-hydroxy-2-methylpropan-2-yl)piperidin-1-yl)-2-cyclopropylethan-1-one]	0.0001 to 10	0.0001 to 10
CC(C)(C1CCN(C(=O)CN2CCOCC2)CC1)C(O)c1cc(Cl)cc2[nH]ncc12 (stereo not shown) [Compound P-0609, 1-(4-(1-(6-chloro-1H-indazol-4-yl)-1-hydroxy-2-methylpropan-2-yl)piperidin-1-yl)-2-morpholinoethan-1-one]	0.0001 to 10	0.0001 to 10
CC(C)(C1CCN(C(=O)CC2CCS(=O)(=O)CC2)CC1)C(O)c1cc(Cl)cc2[nH]ncc12 (stereo not shown) [Compound P-0610, 1-(4-(1-(6-chloro-1H-indazol-4-yl)-1-hydroxy-2-methylpropan-2-yl)piperidin-1-yl)-2-(1,1-dioxidotetrahydro-2H-thiopyran-4-yl)ethan-1-one]	0.0001 to 10	0.0001 to 10
O=C(C1CC1)N1CCC(C(F)(F)[C@H](O)c2c3c(cc4cn[nH]c24)CC3)CC1 [Compound P-0611, (R)-cyclopropyl(4-(2-(5,6-dihydro-1H-cyclobuta[f]indazol-7-yl)-1,1-difluoro-2-hydroxyethyl)piperidin-1-yl)methanone]	0.0001 to 10	0.0001 to 10
CCC(=O)N1CCC(C(F)(F)[C@H](O)c2c3c(cc4cn[nH]c24)CC3)CC1 [Compound P-0612, (R)-1-(4-(2-(5,6-dihydro-1H-cyclobuta[f]indazol-7-yl)-1,1-difluoro-2-hydroxyethyl)piperidin-1-yl) propan-1-one]	0.0001 to 10	0.0001 to 10
